Laboratory results: PMC5608804, “Stepwise Evolution Improves Identification of Diverse Peptides Binding to a Protein Target” (Scientific Reports, 2017)

These substances were tested against T1, streptavidin (Streptomyces avidinii, UniProt P22629) (assay: Cy5-streptavidin binding on HotSpot discovery array, 5-mer L-peptide library). Conditions: 5-mer L-peptide library array, Cy5-streptavidin; from average of three arrays.
T1 construct: purchased GE Healthcare (Little Chalfont, UK)
Description: To identify hotspot sequences that bind to streptavidin (SA), we bound Cy5-SA to an array library of 2,476,099 5-mer L-peptides synthesized with 19 of 20 natural amino acids (excluding cysteine). The fluorescence signal intensity was aggregated across three independently synthesized arrays; then the 2,047 peptides with a signal-to-background ratio (S/B) >4 were selected. The data was further filtered to select 1,100 peptides for which signal intensities were highly correlated on all 3 arrays (the percentage of mean deviation to mean was <10%, see Supplementary dataset Table 2A). Most selected sequences (1,019 of 1,100) contained HP, PQ, or PM sequences: their presence would be expected in the well-known HPQ and HPM streptavidin binders[13]–[18].
The comprehensive peptide library included 2,476,099 5-mer peptides synthesized in a single copy with 19 of 20 L- or D-amino acids (excluding cysteine). Libraries were flanked on both N- and C-termini by linkers of 1 or 3 amino acids using a 3:1 glycine-serine mixture.
Cy5™-streptavidin (Cy5-SA) was purchased from GE Healthcare (Little Chalfont, UK). Freshly deprotected arrays were used in each experiment. Streptavidin binding to all arrays was performed with 0.5 µg/ml Cy5-SA either in binding buffer containing 10 mM Tris-HCl (pH 7.4), 1% alkali-soluble casein (EMD Millipore), 0.05% Tween-20 or in 10 mM Tris-HCl (pH 7.4), 4% BSA (Roche, Basel, Switzerland), 0.05% Tween-20 in a 30 mL PAP Jar container (Evergreen Scientific, Vernon, CA) overnight at 4° C. After incubation, arrays were washed in 20 mM Tris-HCl (pH 7.8), 0.2 M NaCl, 1% SDS or 1X TBS (pH 7.4) for 30 sec followed by a 1 min wash in water, and then dried by spinning in a microcentrifuge equipped with an array holder.
Cy5 fluorescence intensity of the arrays was measured with an MS200 scanner (Roche NimbleGen, Madison, WI) at resolution 2 µm, wavelength 635 nm, gain 25%, and laser intensity 100%. Cy5 signal intensities were extracted using Image Extraction Software (Roche NimbleGen). Data pre-processing, normalization, and statistical tests were performed using the language R. Data visualization and analysis was performed with the Spotfire 6.5.0 (Tibco, Boston, MA) software platform. Distance analysis and principle component analysis of distance matrices were performed with the R package PEPLIB[19].

T1 sequence (P22629 25-183): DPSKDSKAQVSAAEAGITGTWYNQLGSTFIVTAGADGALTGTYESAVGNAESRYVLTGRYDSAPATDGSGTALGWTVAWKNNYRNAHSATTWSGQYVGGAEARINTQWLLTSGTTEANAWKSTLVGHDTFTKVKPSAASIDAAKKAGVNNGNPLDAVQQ

Substance | S/B (signal to background ratio)
WHPQK | 42.1
ANHPM | 47.0
AGHPQ | 137.1
RVHPQ | 126.3
RQHPM | 55.1
GHPQY | 40.1
HHPQI | 19.7
ETHPQ | 49.0
YYHPQ | 190.0
RNHPQ | 136.2
RQHPQ | 139.3
PAHPQ | 124.5
QGHPM | 56.0
HPQMS | 20.7
HHPMN | 25.7
NAHPQ | 121.9
HHPQR | 35.2
YHPMM | 31.1
HPQHG | 57.1
RMHPM | 37.9
QHPQG | 122.5
LVHPM | 31.0
RYHPQ | 175.9
RAHPQ | 147.2
WHPMM | 43.4

Substance | S/B (signal to background ratio)
VMHPQ | 127.9
TFHPQ | 156.9
SHPMS | 25.8
VNHPQ | 137.6
AFHPQ | 177.5
FHHPQ | 219.2
AAHPQ | 123.9
NNHPQ | 137.3
KKHPQ | 22.5
HPQHN | 28.0
WSHPM | 129.1
YHPQA | 168.4
THPQY | 30.1
NDHPM | 32.0
HPQND | 53.5
MEHPM | 23.4
WHHPM | 129.3
QYHPQ | 195.0
PHPQT | 24.1
WHPQS | 129.8
HPMFG | 21.9
HHPQQ | 45.6
MFHPQ | 198.9
GHPMV | 21.8
WVHPQ | 169.6

Substance | S/B (signal to background ratio)
WHPMV | 49.4
HPQGG | 131.5
FIHPQ | 152.7
EVHPQ | 44.3
FKHPM | 44.4
HHHPQ | 143.8
LHPQH | 38.5
THPQQ | 42.4
TYHPM | 50.6
YQHPQ | 172.3
HHPMY | 20.0
KWHPQ | 127.9
GWHPQ | 190.5
SMHPQ | 142.0
LHPQM | 29.4
PHPQN | 138.6
WWHPM | 52.3
HPQFW | 53.0
TQHPQ | 120.0
THPMG | 43.8
AWHPQ | 172.2
MHPQG | 122.9
QNHPQ | 135.0
LMHPQ | 161.1

Same assay, conditions: 5-mer L-peptide library array, Cy5-streptavidin; from the average of three arrays

Substance | S/B (signal to background ratio)
SRHPM | 57.8
YHPQF | 105.0
NEHPQ | 58.6
VLHPQ | 115.6
FHPQV | 107.2
QLHPQ | 117.5
FMHPM | 101.3
WFHPM | 87.4
RRHPQ | 103.0
PDHPQ | 72.7
MIHPQ | 97.1
KMHPQ | 80.4
DRHPQ | 87.4
HPQVN | 63.9
HPQGT | 67.0
VHPQG | 101.6
HPQGD | 62.3
LAAYH [L-amino acid 5-mer array peptide] | 67.7
LTHPM | 64.2
RFHPM | 59.2
QPHPQ | 90.3
QWHPM | 72.2
DYHPQ | 103.8
MYHPM | 89.3

Substance | S/B (signal to background ratio)
DFHPQ | 75.2
KHPQG | 73.1
HPQFT | 92.5
QFHPM | 77.7
LHPQF | 107.9
NQHPQ | 107.5
QHPQF | 117.5
NKHPQ | 85.9
SHPMA | 60.4
PHPQF | 98.8
YRHPM | 71.5
FIHPM | 68.2
EHHPQ | 87.5
YSHPM | 69.2
IHPQG | 85.9
IEHPQ | 67.6
HPQNF | 94.0
GHPMG | 65.8
SKHPQ | 66.3
HPQGF | 63.7
SFHPM | 65.3
LMHPM | 66.9
DMHPQ | 69.3

Same assay, conditions: 5-mer L-peptide library, from the average of three arrays

Substance | S/B (signal to background ratio)
HPQPW | 4.6
RHPMD | 4.3
HGFPT | 4.2
FYNFM [L-amino acid 5-mer array peptide] | 4.7
HPMNY | 4.6
MGNHF [L-amino acid 5-mer array peptide] | 4.3
HFPQN | 4.1
HPMQF | 4.9
IAAYH [L-amino acid 5-mer array peptide] | 4.8
RHPMR | 4.2
HPMRT | 4.3
MPQHF | 4.4
HPWRT | 4.4

Same assay, conditions: average of three arrays, L-peptide 5-mer library

Substance | S/B (signal to background ratio)
MAMHF [L-amino acid 5-mer array peptide] | 17.9
LAAYH [L-amino acid 5-mer array peptide] | 67.7
TPSFG [L-amino acid 5-mer array peptide] | 6.3
HGFPT | 4.2
FYNFM [L-amino acid 5-mer array peptide] | 4.7
MGNHF [L-amino acid 5-mer array peptide] | 4.3
MPWRN [L-amino acid 5-mer array peptide] | 5.2
IAAYH [L-amino acid 5-mer array peptide] | 4.8
NWDEI [L-amino acid 5-mer array peptide] | 7.3
LAFYH [L-amino acid 5-mer array peptide] | 7.8
NWDVI [L-amino acid 5-mer array peptide] | 5.3

Same assay, conditions: signal to background ratio; 5-mer L-peptide library array, Cy5-streptavidin

Substance | S/B
IHPQW | 12.0
GHPMF | 15.1
KHPQW | 9.2
HPMAM | 6.5
HPMRN | 8.8
MAMHF [L-amino acid 5-mer array peptide] | 17.9
HPMNE | 5.7
RHPMM | 11.6
AKHPM | 18.3
HPQSI | 7.3
WHPMK | 14.5
RHPMI | 8.0
TPSFG [L-amino acid 5-mer array peptide] | 6.3
HPQRP | 9.4
WHPQL | 14.5
HPQRV | 5.3
GHPQW | 18.1

Substance | S/B
MPWRN [L-amino acid 5-mer array peptide] | 5.2
HPMGT | 12.0
HPMFH | 6.8
HPMTP | 5.6
NWDEI [L-amino acid 5-mer array peptide] | 7.3
LAFYH [L-amino acid 5-mer array peptide] | 7.8
QHPMY | 11.3
NWDVI [L-amino acid 5-mer array peptide] | 5.3
LHPMN | 9.7
VHPMF | 9.9
GHPMM | 11.7
HPMFA | 17.2
HPQAM | 18.6
HPADF | 6.3
PHPMH | 8.8
PHPMN | 14.3
